The values that follow are results of earlier work, collected in patent publication US4537898A, “Liquid formulations of dihydropyridines” (priority 1983, dated 1985).

For the compound `COCCOC(=O)C1=C(C)NC(C)=C(C(=O)OC(C)C)C1c1cccc([N+](=O)[O-])c1` (stereo not shown) [nimodipine, Nimodipine], the solubility in water is given as 0.2 mg per 100 ml.
